From patent publication US20220023317A1, “PREVENTING OR MITIGATING CHEMOTHERAPY INDUCED ALOPECIA USING VITAMIN D” (Berg LLC, priority 2013, published 2022)

What was measured:
[1] = 4-week dermal toxicity study in Gottingen Minipigs; settings: both, Gottingen, minipig, in vivo
Method: (§1) Observations for morbidity, mortality, injury, and the availability of food and water were conducted twice daily for all animals. Clinical observations were conducted weekly.

Gottingen Minipig = experiment: 4-week dermal toxicity study in Gottingen Minipigs; settings: dermal, twice daily, 29 days, 2.1 mL over 450 cm^2
Method: as §1

BALB/c mice = settings: cited from earlier work
HEKa cells [2] = experiment: Real-time PCR Heat Shock Protein array, calcitriol-treated HEKa; type: cell-based, human; settings: 0.1 μg/mL calcitriol, two independent experiments
Method: Changes in mRNA levels were evaluated using real-time PCR quantification to assess mRNA levels in preselected subsets containing 80 pathway specific targets (see Appendix). The PCR array analysis utilized two groups of genes—those related to Heat Shock Proteins (SABiosciences), and those related to Neuroscience Ion Channels and Transporters (SABioscience). Cell culture: Primary human epidermal keratinocytes (HEKa) were maintained in Epilife Medium (Cascade Biologics, Inc., Portland Oreg.) along with Human Keratinocyte Growth Supplement (Cascade Biologics, Inc., Portland Oreg.). […] D3 treatment of HEKa cells: […] Vehicle control group of cells were treated with 5 mL media containing 1 μL of ethanol. Cells were harvested 3, 6, 16, 24, 48, or 72 hours after the start of the treatment. RNA isolation: Cells were lysed for RNA isolation at different treatment times using the RNeasy Mini kit (Qiagen, Inc., Valencia Calif.) following the manufacturer's instructions. RNA was quantified by measuring optical density at 260 nm. First Strand Synthesis: […] Real-time PCR: Products from the first strand synthesis were diluted with water, mixed with the SYBR green master mix (SABiosciences., Frederick Md.) and loaded onto PCR arrays. Real time PCR was run on the PCR Arrays (Heat Shock Protein Arrays, and Neuroscience and Ion Channel Arrays) (SABiosciences, Frederick Md.) on a Biorad CFX96. Data analyses were performed using the PCR array data analysis software available on the SABiosciences website.

HEKa cells [3] = experiment: 2-D gel electrophoresis proteomic analysis of calcitriol-treated HEKa; type: cell-based, human; settings: 0.1 μg/mL
Method: The cell pellets were then analyzed using proteomic methods, such as 2-D gel and Western blot analysis. […] In all, analysis of about 458 protein spots in the comparative study was performed, comparing the control sample against the 3-, 6-, and 24-hour treatment samples. Six spots showing statistically significant differential changes were identified. These spots were excised, and their protein contents subjected to sequence identification by trypsin digestion and mass spectrometry characterization.

NIH-3T3 = experiment: Cell growth / viability assay; type: cell-based
C57BL/6 mice = settings: topical calcitriol; cited from earlier work
PC-3 = experiment: Cell growth / viability assay; type: cell-based; settings: 0.1 μg/mL calcitriol for two passages
Method: In these experiments, a selected commercial drug was serially diluted, starting at a concentration 4-times higher than the final desired concentration for cell incubation. […] The drug treatment period was usually three days. At the end of the three days, the background OD of the 96-well plate was read at 280 nm, before 20 μL of the “Substrate Cell Titer 96 Aqueous One Solution Reagent” (Promega) was added to each well. […] The net OD increase was calculated by subtracting the pre-substrate OD reading. The impact of the drug on the cells was calculated by comparing the OD at different concentrations in relation to the OD of the control wells (without the drug). The results of the Net OD as a function of drug concentration was plotted and used to determine ED50 values. […] Then these pretreated cells were utilized to set up the cell based assay.

[4] = system: squamous cell carcinoma and human prostate cell carcinoma; settings: 2.5 μg calcitriol 3 doses daily for 3 days, followed by paclitaxel; cited from earlier work
[5] = Quantification of calcitriol in ex vivo porcine skin layers; parameters: species or system minipig
From the text: The skin sections were weighed and the weight recorded.

Sprague Dawley rats = experiment: PCA model, hair regrowth in alopecic rats; type: in vivo, rat; settings: 0.2 μg topical days 22-35, rats alopecic from cyclophosphamide or etoposide; controls day 42
Method: Topical application of 1,25(OH)2D3. 1,25(OH)2D3 was dissolved in absolute ethanol and applied topically with an applicator. Control animals were similarly treated with vehicle only. […] For CIA experiments, 1,25(OH)2D3 was given daily beginning on day 5 after birth and ending on day 10. […] For CIA and PCA, the experimental group was treated with 0.2 μg of 1,25(OH)2D3 in 150 μL of absolute ethanol applied topically over the head and neck. In both instances, the control group received ethanol vehicle only. Cyclophosphamide (35 mg/kg) was given intraperitoneally for one day only. […] Both chemotherapies were started at 11 days of age. Alopecia was recorded on the tenth day after the first dose of chemotherapy. […] Rats were randomized into two groups of ten rats each. One group received vehicle control, while the other received 0.2 μg 1,25(OH)2D3. […] Animals were observed until complete hair regrowth was obtained.

HepG2 = experiment: Cell growth / viability assay; type: cell-based
[6] = Female Minipigs, 10 μg/mL, mean ± SD
[7] = Female Minipigs, 30 μg/mL, mean ± SD
[8] = Male Minipig (1 animal), 100 μg/mL, mean ± SD
[9] = Male Minipigs, 3 μg/mL, mean ± SD
[10] = Male Minipigs, 10 μg/mL, mean ± SD
[11] = Male Minipigs, 30 μg/mL, mean ± SD

SMILES: C=C1/C(=C\C=C2/CCC[C@]3(C)[C@@H]([C@H](C)CCCC(C)(C)O)CC[C@@H]23)C[C@@H](O)C[C@@H]1O [Calcitriol, (1a.3B.5Z.7E)-9,10-secocholesta-5,7,10(19)-triene-1,3,25-triol]
- NOAEL at 29 days [1]: 3.33 µg/kg
- no-observed-adverse-effect-level (NOAEL) (Gottingen Minipig): 10.31 µg/mL
- protective effect in tumor-bearing male mice (BALB/c mice; injected with EMT-6 murine breast tumor cells): diminished
- degree of CIA (BALB/c mice; male mice, topical 5 days prior to i.p. cyclophosphamide): significantly reduced the degree of CIA in a dose-dependent manner
- DNAJC6 mRNA regulation pattern (HEKa cells [2]): Downregulated
- HSF4 mRNA regulation pattern (HEKa cells [2]): Upregulated at 48 hours
- HSPA2 mRNA regulation pattern (HEKa cells [2]): Upregulated at 48 hours
- HSPB1 mRNA regulation pattern (HEKa cells [2]): Down regulated at 48 hours
- S100 A9 (Calprotectin) Response (HEKa cells [3]; full cell: down at 6 and 24 hours): down at 6
- Keratin 17 Response (HEKa cells [3]; full cell: down at 24 hours): down at
- Glutathione S-transferase (GST) Response (HEKa cells [3]; full cell: up at 3, 6, and 24 hours): up at 3, 6,
- effect of calcitriol on cell growth (NIH-3T3): no significant growth promoting or growth inhibiting effects
- effect of calcitriol on cytotoxic effect of Doxorubicin (NIH-3T3): did not appear to appreciably alter
- follicular apoptosis induced by cyclophosphamide (C57BL/6 mice): significantly diminish the degree of follicular apoptosis
- response to doxorubicin, cisplatin, erlotinib after calcitriol exposure (PC-3): did not alter
- tumor response [4]: significant tumor regression
- Stratum Corneum calcitriol recovered ([5]; Female Minipigs, 1 μg/mL, mean ± SD): 0.76 ± 1.3 (3) ng/cm^2
- Dermis calcitriol recovered ([5]; Female Minipigs, 1 μg/mL, zero = below Lower Limit of Detection): 0 ± 0 (3) ng/mg
- Stratum Corneum calcitriol recovered ([5]; Female Minipigs, 3 μg/mL, mean ± SD): 1.12 ± 1.49 (3) ng/cm^2
- Dermis calcitriol recovered ([5]; Female Minipigs, 3 μg/mL, zero = below Lower Limit of Detection): 0 ± 0 (3) ng/mg
- Epidermis calcitriol recovered [5, 6]: 0.02 ± 0.04 (3) ng/mg
- Stratum Corneum calcitriol recovered [5, 6]: 1.65 ± 1.80 (3) ng/cm^2
- Dermis calcitriol recovered ([5]; Female Minipigs, 10 μg/mL, zero = below Lower Limit of Detection): 0.0 ± 0.0 (3) ng/mg
- Epidermis calcitriol recovered [5, 7]: 0.34 ± 0.24 (3) ng/mg
- Stratum Corneum calcitriol recovered [5, 7]: 20.2 ± 11.7 (3) ng/cm^2
- Dermis calcitriol recovered ([5]; Female Minipigs, 30 μg/mL, zero = below Lower Limit of Detection): 0.0 ± 0.0 (3) ng/mg
- Dermis calcitriol recovered [5, 8]: 0.13 ± 0.04 (1) ng/mg
- Epidermis calcitriol recovered [5, 8]: 2.09 ± 1.0 (1) ng/mg
- Stratum Corneum calcitriol recovered [5, 8]: 118.1 ± 11.4 (1) ng/cm^2
- Epidermis calcitriol recovered ([5]; Male Minipigs, 1 μg/mL, mean ± SD): 0.16 ± 0.28 (3) ng/mg
- Stratum Corneum calcitriol recovered ([5]; Male Minipigs, 1 μg/mL, twice daily 7 days, mean ± SD): 56.1 ± 17.4 (3) ng/cm^2
- Dermis calcitriol recovered ([5]; Male Minipigs, 1 μg/mL, zero = below Lower Limit of Detection): 0.0 ± 0.0 (3) ng/mg
- Epidermis calcitriol recovered [5, 9]: 0.14 ± 0.23 (3) ng/mg
- Stratum Corneum calcitriol recovered [5, 9]: 62.4 ± 7.91 (3) ng/cm^2
- Dermis calcitriol recovered ([5]; Male Minipigs, 3 μg/mL, zero = below Lower Limit of Detection): 0.0 ± 0.0 (3) ng/mg
- Epidermis calcitriol recovered [5, 10]: 0.23 ± 0.20 (3) ng/mg
- Stratum Corneum calcitriol recovered [5, 10]: 59.6 ± 14.1 (3) ng/cm^2
- Dermis calcitriol recovered ([5]; Male Minipigs, 10 μg/mL, zero = below Lower Limit of Detection): 0.0 ± 0.0 (3) ng/mg
- Epidermis calcitriol recovered [5, 11]: 0.38 ± 0.33 (3) ng/mg
- Stratum Corneum calcitriol recovered [5, 11]: 54.6 ± 32.5 (3) ng/cm^2
- Dermis calcitriol recovered ([5]; Male Minipigs, 30 μg/mL, zero = below Lower Limit of Detection): 0.0 ± 0.0 (3) ng/mg
- day of total body hair regrowth (Sprague Dawley rats): 50 days
- effect of calcitriol on cytotoxic effect of Doxorubicin (HepG2): did not appear to appreciably alter
- response to doxorubicin, cisplatin, erlotinib after calcitriol exposure (HepG2; 0.1 μg/mL calcitriol for two passages): did not alter
- 5-FU ED50 curve with vs without calcitriol (HepG2; 0.1 μg/mL calcitriol supplement): not significantly different
- concentrations giving growth inhibition (HepG2; high concentrations): > 0.5 µg/mL
- concentrations giving growth stimulation (HepG2; low concentrations): 0.05 to 0.25 µg/mL
